The record followed here is patent publication US20040152126A1, “Methods of screening for cox-2 inhibitors” (priority 1999, published 2004).

Assay [1] concerns endogenous cox-2 gene (mRNA of cox-2). As to the kind of experiment: RT-PCR analysis of the expression of cox-2 mRNA in Jurkat cells. It is filed as cell-based, human. To be noted: PMA 10 ng/ml alone or with calcium ionophore A23187 1 μM, FIG. 3(A). The procedure:
In order to study the regulation of the expression of the endogenous cox-2 gene in the Jurkat cell line, the analysis of the expression of its mRNA was performed by experiments with RT-PCR. At the same time, in order to validate the prom2-1906-LUC construct and to check that the regulation of the cloned promoter is as expected, experiments were carried out of transitory transfection of the prom2-1906-LUC construct using the Jurkat cell line. In both experiments, the cells were treated with compounds that stimulate and inhibit the induction of the promoter of cox-2.
Treatment with activator compounds were carried out using the phorbol ester PMA (Phorbol 12-Myristate 13-Acetate) (10 ng/ml) (Sigma) and the combination of PMA and Calcium ionophore A23187 (1 μM) (Sigma), hereinafter PMA+Ion.
Treatment with drugs that inhibit the induction by PMA+Ion were carried out with cyclosporin A (CsA) (100 ng/ml) or the synthetic glucocorticoide Dexamethasone (Dex) (1 μM) (Sigma).
The results obtained from the analysis by RT-PCR of the expression of mRNA of cox-2 in Jurkat cells are presented in FIG. 3, where the following can be observed:
As a control in both cases, the result obtained for the non-inducible mRNAs of the cox-1 isoform and for the glycerol aldehyde phosphate dehydrogenase (GAPDH) are shown.

The subject of assay [2] is cox-2 promoter. The assay can be described thus: Luciferase activity in stable Jurkat-1906LUC clones (Jurkat-C3-, F9-, C7-1906LUC).
Description: The transfection was carried out by means of the technique of electroporation in cuvettes of 0.4 cm (BioRad) with 15×10^6 cells in 0.5 ml of complete medium [RMPI medium supplemented with 10% of foetal serum, L-glutamine 2mM and a mixture of antibiotics] […] After this period, the cells were electroporated in a Gene Pulser II (BioRad) apparatus at 1.500 μFaradays of capacitance and a current of 280 V. Next, the cells were incubated over ice for 10 minutes before adding 10 ml of complete medium. The cells were cultured in this medium in 75 cm^2 culture flasks (Nunc) for 48 hours in a cell incubator at 37° C. with a humidity of 95% and 5% of Co2. At this time, the medium was changed for complete medium with no antibiotics to which hygromycin (Boehringer Mannheim) was added at a concentration of 200 μg/ml. The cells were cultured in this medium for 30 days with successive changes of medium. […] For this, 1×10^6 cells were lysed in 50 μl of lysis buffer (Promega) and with the extracts obtained, the luciferase activity was determined using the reagents contained in the kit of the “Luciferase Assay System” [Promega].
These clones were grown until obtaining at least 1×10^6 cells with which measurement of the luciferase activity could be performed as described earlier. […]

`CCCCCCCCCCCCCC(=O)O[C@@H]1[C@@H](C)[C@@]2(O)[C@@H](C=C(CO)C[C@]3(O)C(=O)C(C)=C[C@@H]23)[C@@H]2C(C)(C)[C@]12OC(C)=O` [PMA, Phorbol 12-Myristate 13-Acetate]: in assay [1], the “expression of the mRNA of cox-2” value was “slight increase”. Further, the “increase of the basal values of luciferase activity” value in assay [2] (three stable clones, treatment of 6 hours, FIG. 7) was in the range of 3 to 6 times.
On to `Oc1ccc(C=Cc2cc(O)cc(O)c2)cc1` [Resveratrol], for which the “inhibition of the stimulation obtained with PMA+Ion (luciferase activity)” value in assay [2] (stable Jurkat clones, 1 hour pre-treatment with compound, then PMA+Ion for 5 hours, FIGS. 8-10) is reported as “produces an inhibition of the stimulation obtained with PMA+Ion”.
